Patent US20230172867A1, “A METHOD FOR TREATING CANCER WITH AN ORAL DOSAGE FORM OF AN FGFR4 INHIBITOR” (Eisai R&D Management Co., Ltd., priority 2020, published 2023)
Entries after “also recorded” stand apart in the source; their conditions may differ. Where two headings read alike, the source gives them in different places.

Assay: Pharmacokinetic measurements of H3B-6527 capsules in patients (trial NCT02834780), plasma LC-MS/MS
Type: in vivo, human
Settings: for Cmax / half-life / Tmax / AUC: human, plasma, oral; for Cmax: read-out: Cmax, geometric mean (CV%); for half-life: read-out: Half-life, geometric mean (CV%) (converted); for Tmax: read-out: Tmax, median (min-max); for AUC: read-out: AUC, geometric mean (CV%)
Excerpt: A description of the first in human clinical trial for H3B-6527 can be found at the ClinicalTrials.gov by searching for trial identifier NCT02834780. In summary, the trial included a study population having the following characteristics: Adult patients ≥18 years old with advanced HCC or ICC; Progression after at least one prior therapy; ECOG score of 0 or 1; Well compensated liver function; FGF19-positive (dose expansion phase only); Excluded if patients have significant active infections [except hepatitis B virus (HBV) and hepatitis C virus (HCV)], gastric or esophageal varices, or previous FGF19-FGFR4 targeted therapy.
Blood samples are collected at the planned time points from each patient and centrifuged. The plasma portion of each sample is then transferred to a K2EDTA tube, which is then shipped to a bioanalytical lab for concentration measurement using LC-MS/MS. The concentration data are then analyzed using Phoenix® WinNonlin software to obtain PK parameters. The obtained PK parameters are further summarized using analytical software.
Drug Administration and Dosage for Dose Escalation: H3B-6527 was administered orally QD or BID on a 21-day cycle. […] Patients in dose escalation phase were treated regardless of FGF19 status. Response determined by RECIST 1.1/modified RECIST every 6 weeks
Further collection and collation of the PK results of the trial of Example 2 at a later point in time are reflected in the following Table 5:
The results of further analysis of the PK data of the trial of Example 2 with the actual date and time of the dose administration and PK sampling after QC, an update from the results of a preliminary analysis with the nominal (i.e. planned) dosing/PK sampling date/time presented in Example 3, are reflected in the following Table 6. In this example the number of patients from which each PK parameter was calculated is shown, rather than the total number of patients receiving a particular dose and regimen as in Table 5.

[1] = 300 mg, 300 mg QD, fasted, Day 1, Table 5, nominal times
[2] = 300 mg, 300 mg QD, fasted, Day 1, Table 6, actual times after QC
[3] = 300 mg, 300 mg QD, fasted, Day 8, Table 5, nominal times
[4] = 300 mg, 300 mg QD, fasted, Day 8, Table 6, actual times after QC
[5] = 500 mg, 500 mg BID, fasted, Day 1, Table 5, nominal times
[6] = 500 mg, 500 mg BID, fasted, Day 1, Table 6, actual times after QC
[7] = 500 mg, 500 mg BID, fasted, Day 8, Table 5, nominal times
[8] = 500 mg, 500 mg BID, fasted, Day 8, Table 6, actual times after QC
[9] = 500 mg, 500 mg BID, fed, Day 1, Table 5, nominal times
[10] = 500 mg, 500 mg BID, fed, Day 1, Table 6, actual times after QC
[11] = 500 mg, 500 mg BID, fed, Day 8, Table 5, nominal times
[12] = 500 mg, 500 mg BID, fed, Day 8, Table 6, actual times after QC
[13] = 600 mg, 600 mg QD, fasted, Day 1, Table 5, nominal times
[14] = 600 mg, 600 mg QD, fasted, Day 1, Table 6, actual times after QC
[15] = 600 mg, 600 mg QD, fasted, Day 8, Table 5, nominal times
[16] = 600 mg, 600 mg QD, fasted, Day 8, Table 6, actual times after QC
[17] = 600 mg, 600 mg QD, fed, Day 1, Table 5, nominal times
[18] = 600 mg, 600 mg QD, fed, Day 1, Table 6, actual times after QC
[19] = 600 mg, 600 mg QD, fed, Day 8, Table 5, nominal times

C=CC(=O)Nc1cc(N2CCN(CC)CC2)ccc1Nc1cc(N(C)C(=O)Nc2c(Cl)c(OC)cc(OC)c2Cl)ncn1 [H3B-6527, N-(2-((6-(3-(2,6-dichloro-3,5-dimethoxyphenyl)-1-methylureido)pyrimidin-4-yl)amino)-5-(4-ethylpiperazin-1-yl)phenyl)acrylamide]
AUC, geometric mean (CV%) (300 mg QD, fasted, Day 1, Table 5, nominal times): 73 ng·h/mL
AUC, geometric mean (CV%) (300 mg QD, fasted, Day 8, Table 5, nominal times): 53 ng·h/mL
AUC, geometric mean (CV%) (500 mg BID, fasted, Day 1, Table 5, nominal times): 470 ng·h/mL
AUC, geometric mean (CV%) (500 mg BID, fasted, Day 8, Table 5, nominal times): 1200 ng·h/mL
AUC, geometric mean (CV%) (500 mg BID, fed, Day 1, Table 5, nominal times): 769 ng·h/mL
AUC, geometric mean (CV%) (500 mg BID, fed, Day 8, Table 5, nominal times): 1080 ng·h/mL
exposure in plasma across doses (500 mg to 2000 mg administered with food (FIG. 4)): appeared to be similar across the doses from 500 mg to 2000 mg
AUC, geometric mean (CV%) (600 mg QD, fasted, Day 1, Table 5, nominal times): 175 ng·h/mL
AUC, geometric mean (CV%) (600 mg QD, fasted, Day 8, Table 5, nominal times): 636 ng·h/mL
AUC, geometric mean (CV%) (600 mg QD, fed, Day 1, Table 5, nominal times): 1280 ng·h/mL
AUC, geometric mean (CV%) (600 mg QD, fed, Day 8, Table 5, nominal times): 502 ng·h/mL
AUC, geometric mean (CV%) (700 mg BID, fed, Day 1, Table 5, nominal times): 590 ng·h/mL
AUC, geometric mean (CV%) (700 mg BID, fed, Day 8, Table 5, nominal times): 640 ng·h/mL
AUC, geometric mean (CV%) (1000 mg QD, fasted, Day 1, Table 5, nominal times): 602 ng·h/mL
AUC, geometric mean (CV%) (1000 mg QD, fasted, Day 8, Table 5, nominal times): 912 ng·h/mL
AUC, geometric mean (CV%) (1000 mg QD, fed, Day 1, Table 5, nominal times): 1100 ng·h/mL
AUC, geometric mean (CV%) (1000 mg QD, fed, Day 8, Table 5, nominal times): 865 ng·h/mL
AUC, geometric mean (CV%) (1400 mg QD, fasted, Day 1, Table 5, nominal times): 400 ng·h/mL
AUC, geometric mean (CV%) (1400 mg QD, fasted, Day 8, Table 5, nominal times): 1450 ng·h/mL
AUC, geometric mean (CV%) (1400 mg QD, fed, Day 1, Table 5, nominal times): 5670 ng·h/mL
AUC, geometric mean (CV%) (1400 mg QD, fed, Day 8, Table 5, nominal times): 5450 ng·h/mL
AUC, geometric mean (CV%) (2000 mg QD, fed, Day 1, Table 5, nominal times): 3030 ng·h/mL
AUC, geometric mean (CV%) (2000 mg QD, fed, Day 8, Table 5, nominal times): 1920 ng·h/mL
minimal plasma concentration, BID versus QD schedule (Cycle 1, Day 8 (FIG. 1)): A higher minimal plasma concentration was maintained on the BID schedule
plasma levels / exposure versus dose (QD, fasted, Cycle 1, Day 8 (FIG. 1), preliminary PK analysis): increased with dose from 300 to 1000 mg QD and plateaued; also recorded: increased with dose up to 1000 mg QD
Cmax [1]: 20 ng/mL
half-life [1]: 1.4 h
Tmax [1]: 2 h
AUC [2]: 72.7 ng·h/mL
Cmax [2]: 20.3 ng/mL
half-life [2]: 2.52 h
Tmax [2]: 2 h
Cmax [3]: 11 ng/mL
half-life [3]: 1.2 h
Tmax [3]: 4 h
AUC [4]: 53 ng·h/mL
Cmax [4]: 10.8 ng/mL
half-life [4]: 3.55 h
Tmax [4]: 4 h
Cmax [5]: 124 ng/mL
half-life [5]: 1.9 h
Tmax [5]: 2.75 h
AUC [6]: 292 ng·h/mL
Cmax [6]: 124 ng/mL
half-life [6]: 2.41 h
Tmax [6]: 2.12 h
Cmax [7]: 253 ng/mL
half-life [7]: 1.8 h
Tmax [7]: 3.05 h
AUC [8]: 1110 ng·h/mL
Cmax [8]: 251 ng/mL
half-life [8]: 2.96 h
Tmax [8]: 4 h
Cmax [9]: 255 ng/mL
half-life [9]: 2.1 h
Tmax [9]: 4.02 h
AUC [10]: 768 ng·h/mL
Cmax [10]: 255 ng/mL
half-life [10]: 2.33 h
Tmax [10]: 4.02 h
Cmax [11]: 262 ng/mL
half-life [11]: 2.3 h
Tmax [11]: 4 h
AUC [12]: 814 ng·h/mL
Cmax [12]: 211 ng/mL
half-life [12]: 2.99 h
Tmax [12]: 4 h
Cmax [13]: 74 ng/mL
half-life [13]: 2.4 h
Tmax [13]: 1 h
AUC [14]: 175 ng·h/mL
Cmax [14]: 74.5 ng/mL
half-life [14]: 7.19 h
Tmax [14]: 1 h
Cmax [15]: 194 ng/mL
half-life [15]: 4.8 h
Tmax [15]: 0.52 h
AUC [16]: 636 ng·h/mL
Cmax [16]: 194 ng/mL
half-life [16]: 7.32 h
Tmax [16]: 0.52 h
Cmax [17]: 241 ng/mL
half-life [17]: 3.7 h
Tmax [17]: 4 h
AUC [18]: 1630 ng·h/mL
Cmax [18]: 395 ng/mL
half-life [18]: 3.72 h
Tmax [18]: 4 h
Cmax [19]: 100 ng/mL
half-life [19]: 3.2 h
